Common to all, as to format: cell-based, Raphanus sativus L. cv. Cherry-Belle
Assay [1] deals with radish cotyledons. The assay can be described thus: Radish cotyledon expansion bioassay (fresh weight, chlorophyll). The note with it: compounds 20 mg/L, 72 h, 25° C.; for Change in fresh weight: continuous illumination. How it is done: (§1) Seeds of Raphanus sativus L. cv. Cherry-Belle were germinated in darkness at 24° C. for 40 h in Petri dishes containing filter paper wetted with distilled water. The smaller of the two cotyledons was excised, the fresh weight determined, and 10 cotyledons placed adaxial side down on filter paper in Petri dishes containing 7.5 mL of phosphate buffered saline (PBS, 2 mM, pH 6.0) and the compounds to be tested at 20 mg/L. Cotyledons were then incubated under continuous illumination up to 72 h at 24° C. or 25° C. and the increase in fresh weight determined. Chlorophyll content was determined after extraction of tissue into 80% EtOH (containing butylated hydroxytoluene 10 mg/L) and quantified using the equations Chl a=(13.95A663)-(6.88A647) and Chl b=(24.96A652)-(7.32A663) as described by Lichtenthaler, H K (Methods in Enzymology 148:350-382, 1987). IAA oxidase, PAL, PPO and POD activity were determined as described by Kato, M et al. (Plant and Cell Physiology 41:440-447, 2000) and Li, X et al. (Plant Science 164:549-556, 2003).
In order to remove variability from the bioassay—due presumably to temporal changes in the concentration of root-derived cytokinins in cotyledons—the bioassay procedure was modified to routinely include 0.2 mg/L (approximately 1 μM) kinetin in the background.
Cotyledon expansion growth: The effect of soy EML in the presence of kinetin on expansion growth was investigated and the results are shown in Table 1.

In assay [2] the test system is radish cotyledons. Briefly: Protein content of radish cotyledons. The note with it: 20 mg/L, FIG. 1. How it is done:
as §1
(§2) PAL (EC 4.3.1.5) activity: Ethylene is produced by plants in response to a variety of stresses, including wounding (Kato, M et al. Plant and Cell Physiology 41:440-447, 2000). Assuming the stress is of sufficient intensity and duration plants will also begin to show signs of senescence. […]

The subject of another assay is PAL (EC 4.3.1.5). Briefly: PAL activity in radish cotyledons. Particulars: 20 mg/L, FIG. 1. How it is done: as §1, §2
A further assay deals with POD (EC 1.11.1.7). The assay can be described thus: POD activity in radish cotyledons. The note with it: onset of organ maturity, FIG. 4. How it is done: as §1
To determine the effect of EML on induction of POD, activity of this enzyme was monitored during the 72 h incubation period after exposure to soy EML (20 mg/l) and the results are shown in FIG. 4. […] Highest POD activity was measured in control and ACC-treated cotyledons.

The next assay has as its system PPO (EC 1.14.18.1). The assay can be described thus: PPO activity in radish cotyledons. The note with it: 20 mg/L, FIG. 6. As for the experimental part: as §1
PPO (EC 1.14.18.1): Like PAL and POD, PPO is an important enzyme catalyzing lignin biosynthesis in plants.

Another assay concerns IAA oxidase. The assay can be described thus: IAA oxidase activity in radish cotyledons. Particulars: 20 mg/L, FIG. 7. How it is done: as §1
IAA Oxidase activity: IAA homeostasis is an important process contributing to correlative control of plant growth and development. Generally, IAA is synthesized in the apices and in shoots; apically derived IAA is basipetally transported. […]

Regarding `NC1(C(=O)O)CC1` [ACC, 1-amminocyclopropane-1-carboxylic acid], in the assay with radish cotyledons [1], the “% of control (change in fresh weight)” value turned out to be 25%, the “Chlorophyll a + b (mg/g FW)” value is 5.40 mg/g FW, the “Chlorophyll a + b (μg/cotyledon)” value amounted to 35.90 ± 6.13 μg/cotyledon and the Chlorophyll a/b worked out at 0.83. Besides, the “Change in fresh weight” value with radish cotyledons [1] amounted to 2.56 ± 0.39 mg. Further, in the assay on radish cotyledons [2], the protein content result was “delayed and reached a maximum only 24 h after exposure to light”. In addition, in the assay on PAL (EC 4.3.1.5), the PAL activity entry is listed as “progressively delayed”. Further, the “POD activity at 48 and 72 h” value in the assay with POD (EC 1.11.1.7) was “Highest”. In addition, in the assay on PPO (EC 1.14.18.1), the PPO activity entry is “appeared to suppress PPO activity”.

Consider `c1coc(CNc2ncnc3[nH]cnc23)c1` [Kinetin, kinetin], for which the activity at 20 µg/mL in the assay with radish cotyledons [1] (Raphanus sativus, read-out: % of control (change in fresh weight)) was 153%. Also, in the assay on radish cotyledons [1], the “Chlorophyll a + b (mg/g FW)” value was determined as 2.17 mg/g FW, the “Chlorophyll a + b (μg/cotyledon)” value was 54.10 ± 7.03 μg/cotyledon, the Chlorophyll a/b is given as 0.87 and the “Change in fresh weight” value was determined as 15.49 ± 1.81 mg. In addition, the protein content entry with radish cotyledons [2] is “rapid but transient increase”. The PAL activity entry in the assay with PAL (EC 4.3.1.5) is “progressively delayed”. Further, in the assay with POD (EC 1.11.1.7), the “POD activity at 48 and 72 h” value is given as “lowest”. In addition, in the assay on PPO (EC 1.14.18.1), the PPO activity entry is recorded as “appeared to increase gradually over time”.

Turning to lysophosphatidylethanolamine [LPE], the PPO activity result in the assay on PPO (EC 1.14.18.1) was “did not induce PPO activity”. Also, in the assay on IAA oxidase, the IAA oxidase activity entry was “no apparent effect”.

The values are drawn from US20070269529A1, “Method For Treating Plants And Plant Parts” (priority 2003, published 2007).
